{"source": "patent US20240173307A1", "about": "“MODULATORS OF THE INTEGRATED STRESS PATHWAY” (Calico Life Sciences LLC, priority 2017, published 2024)", "data": [{"test_system": "HEK293T cells carrying the ATF4 luciferase reporter", "assay": "ATF4-Luc assay (in vitro model of vanishing white matter disease)", "type": "cell-based", "details": "Homo sapiens, HEK-293T, 1 μg/mL tunicamycin, 7 hours", "protocol": "In order to test exemplary compounds of the invention in a cellular context, a stable VWMD cell line was first constructed. The ATF4 reporter was prepared by fusing the human full-length ATF4 5′-UTR (NCBI Accession No. BCO22088.2) in front of the firefly luciferase (FLuc) coding sequence lacking the initiator methionine as described in Sidrauski et al (eLife 2013). The construct was used to produce recombinant retroviruses using standard methods and the resulting viral supernatant was used to transduce HEK293T cells, which were then subsequently selected with puromycin to generate a stable cell line.\nHEK293T cells carrying the ATF4 luciferase reporter were plated on polylysine coated 384-well plates (Greiner Bio-one) at 30,000 cells per well. Cells were treated the next day with 1 μg/mL tunicamycin and 200 nM of a compound of Formula (I) for 7 hours. Luminescence was measured using One Glo (Promega) as specified by the manufacturer. Cells were maintained in DMEM with L-glutamine supplemented with 10% heat-inactivated FBS (Gibco) and Antibiotic-Antimycotic solution (Gibco).\nTable 2 below summarizes the EC50 data obtained using the ATF4-Luc assay for exemplary compounds of the invention.", "units": {"EC50": "nM"}, "values": [{"smiles": "O=C(COc1ccc(Cl)c(F)c1)NC12CC(C(=O)Nc3ccc(OC(F)F)cn3)(C1)C2", "note": "[Compound 309, 3-[2-(4-chloro-3-fluorophenoxy)acetamido]-N-[5-(difluoromethoxy)pyridin-2-yl]bicyclo[1.1.1]pentane-1-carboxamide]", "EC50": "< 250"}, {"smiles": "O=C(COc1ccc(Cl)c(F)c1)NC12CCC(C(=O)N(CCO)Cc3ccc(Cl)c(F)c3)(CC1)CC2", "note": "[Compound 344, 4-[2-(4-chloro-3-fluorophenoxy)acetamido]-N-[(4-chloro-3-fluorophenyl)methyl]-N-(2-hydroxyethyl)bicyclo[2.2.2]octane-1-carboxamide]", "EC50": "1000 to 2000"}, {"smiles": "CCOC(=O)c1ccc(NC(=O)C23CC(NC(=O)COc4ccc(Cl)c(F)c4)(C2)C3)nc1", "note": "[Compound 311, ethyl 6-({3-[2-(4-chloro-3-fluorophenoxy)acetamido]bicyclo[1.1.1]pentane-1-carbonyl}amino)pyridine-3-carboxylate]", "EC50": "250 to 500"}, {"smiles": "O=C(COc1ccc(Cl)c(F)c1)NC12CCC(C(=O)Nc3ccc(OC(F)(F)F)cc3)(CC1)OC2", "note": "[Compound 336, 4-[2-(4-chloro-3-fluorophenoxy)acetamido]-N-[4-(trifluoromethoxy)phenyl]-2-oxabicyclo[2.2.2]octane-1-carboxamide]", "EC50": "< 250"}, {"smiles": "O=C(COc1ccc(Cl)c(F)c1)NC12CCC(C(=O)NCc3cc(C(F)(F)F)ccn3)(CC1)CC2", "note": "[Compound 332, 4-[2-(4-chloro-3-fluorophenoxy)acetamido]-N-{[4-(trifluoromethyl)pyridin-2-yl]methyl}bicyclo[2.2.2]octane-1-carboxamide]", "EC50": "< 250"}, {"smiles": "CC(NC(=O)C12CC(NC(=O)COc3ccc(Cl)c(F)c3)(C1)C2)c1cc2cc(Cl)ccc2o1", "note": "(stereo not drawn) [Compound 330, N-[1-(5-chloro-1-benzofuran-2-yl)ethyl]-3-[2-(4-chloro-3-fluorophenoxy)acetamido]bicyclo[1.1.1]pentane-1-carboxamide]", "EC50": "1000 to 2000"}, {"smiles": "O=C(COc1ccc(Cl)c(F)c1)NC12CCC(C(=O)NCc3ccc(OC(F)F)cn3)(CC1)CC2", "note": "[Compound 265, 4-[2-(4-chloro-3-fluorophenoxy)acetamido]-N-{[5-(difluoromethoxy)pyridin-2-yl]methyl}bicyclo[2.2.2]octane-1-carboxamide]", "EC50": "< 250"}, {"smiles": "O=C(COc1ccc(Cl)c(F)c1)NC12CC(C(=O)NCc3cnccn3)(C1)C2", "note": "[Compound 164, 3-[2-(4-chloro-3-fluorophenoxy)acetamido]-N-[(pyrazin-2-yl)methyl]bicyclo[1.1.1]pentane-1-carboxamide]", "EC50": "> 2000"}, {"smiles": "Cc1cnc(NC(=O)C23CC(NC(=O)COc4ccc(Cl)c(F)c4)(C2)C3)cn1", "note": "[Compound 304, 3-[2-(4-chloro-3-fluorophenoxy)acetamido]-N-(5-methylpyrazin-2-yl)bicyclo[1.1.1]pentane-1-carboxamide]", "EC50": "< 250"}, {"smiles": "O=C(COc1ccc(Cl)c(F)c1)NC12CC(C(=O)Nc3ccc(C4CC4)cn3)(C1)C2", "note": "[Compound 306, 3-[2-(4-chloro-3-fluorophenoxy)acetamido]-N-(5-cyclopropylpyridin-2-yl)bicyclo[1.1.1]pentane-1-carboxamide]", "EC50": "< 250"}, {"smiles": "NC(=O)c1ccc(CNC(=O)C23CC(NC(=O)COc4ccc(Cl)c(F)c4)(C2)C3)nc1", "note": "[Compound 339, 6-[({3-[2-(4-chloro-3-fluorophenoxy)acetamido]bicyclo[1.1.1]pentane-1-carbonyl}amino)methyl]pyridine-3-carboxamide]", "EC50": "> 2000"}, {"smiles": "O=C(COc1ccc(Cl)c(F)c1)NC12CCC(C(=O)NCc3nc4ccc(Cl)cc4[nH]3)(CC1)CC2", "note": "[Compound 325, N-[(6-chloro-1H-benzimidazol-2-yl)methyl]-4-[2-(4-chloro-3-fluorophenoxy)acetamido]bicyclo[2.2.2]octane-1-carboxamide]", "EC50": "< 250"}, {"smiles": "O=C(COc1ccc(Cl)c(F)c1)NC12CCC(C(=O)Nc3ccc(OC(F)(F)F)nc3)(CC1)CC2", "note": "[Compound 280, 4-[2-(4-chloro-3-fluorophenoxy)acetamido]-N-[6-(trifluoromethoxy)pyridin-3-yl]bicyclo[2.2.2]octane-1-carboxamide]", "EC50": "< 250"}, {"smiles": "O=C(COc1ccc(Cl)c(F)c1)NC12CCC(C(=O)NCc3nc4ccccc4[nH]3)(CC1)CC2", "note": "[Compound 327, N-[(1H-benzimidazol-2-yl)methyl]-4-[2-(4-chloro-3-fluorophenoxy)acetamido]bicyclo[2.2.2]octane-1-carboxamide]", "EC50": "< 250"}, {"smiles": "O=C(COc1ccc2c(c1)OC(F)(F)O2)NC12CC(C(=O)Nc3ccc(OC(F)(F)F)cn3)(C1)C2", "note": "[Compound 294, 3-{2-[(2,2-difluoro-2H-1,3-benzodioxol-5-yl)oxy]acetamido}-N-[5-(trifluoromethoxy)pyridin-2-yl]bicyclo[1.1.1]pentane-1-carboxamide]", "EC50": "< 250"}, {"smiles": "O=C(COc1ccc2c(c1)OC(F)(F)O2)NC12CCC(C(=O)Nc3ccc(OC(F)(F)F)cn3)(C1)C2", "note": "[Compound 293, 4-{2-[(2,2-difluoro-2H-1,3-benzodioxol-5-yl)oxy]acetamido}-N-[5-(trifluoromethoxy)pyridin-2-yl]bicyclo[2.1.1]hexane-1-carboxamide]", "EC50": "250 to 500"}, {"smiles": "O=C(COc1ccc(Cl)c(F)c1)NC12CCC(C(=O)NCc3ccc(C(F)(F)F)cn3)(CC1)C(=O)N2CCO", "note": "[Compound 329, 1-[2-(4-chloro-3-fluorophenoxy)acetamido]-2-(2-hydroxyethyl)-3-oxo-N-{[5-(trifluoromethyl)pyridin-2-yl]methyl}-2-azabicyclo[2.2.2]octane-4-carboxamide]", "EC50": "< 250"}, {"smiles": "O=C(COc1ccc(Cl)c(F)c1)NC12CCC(C(=O)Nc3ccc(OC(F)(F)F)cn3)(C1)C2", "note": "[Compound 288, 4-[2-(4-chloro-3-fluorophenoxy)acetamido]-N-[5-(trifluoromethoxy)pyridin-2-yl]bicyclo[2.1.1]hexane-1-carboxamide]", "EC50": "< 250"}, {"smiles": "COc1ccc(NC(=O)C23CC(NC(=O)COc4ccc(Cl)c(F)c4)(C2)C3)nc1", "note": "[Compound 303, 3-[2-(4-chloro-3-fluorophenoxy)acetamido]-N-(5-methoxypyridin-2-yl)bicyclo[1.1.1]pentane-1-carboxamide]", "EC50": "250 to 500"}, {"smiles": "O=C(COc1ccc(Cl)c(F)c1)NC12CC(C(=O)NCCOc3ccc(Cl)c(F)c3)(C1)C2", "note": "[Compound 340, 3-[2-(4-chloro-3-fluorophenoxy)acetamido]-N-[2-(4-chloro-3-fluorophenoxy)ethyl]bicyclo[1.1.1]pentane-1-carboxamide]", "EC50": "< 250"}, {"smiles": "O=C(NC12CC(C(=O)Nc3ccc(OC(F)(F)F)cn3)(C1)C2)c1ccc(OC(F)(F)F)cn1", "note": "[Compound 315, 5-(trifluoromethoxy)-N-(3-{[5-(trifluoromethoxy)pyridin-2-yl]carbamoyl}bicyclo[1.1.1]pentan-1-yl)pyridine-2-carboxamide]", "EC50": "500 to 1000"}, {"smiles": "O=C(COc1ccc(Cl)c(F)c1)NC12CC(C(=O)NCc3ccc(C(F)F)cn3)(C1)C2", "note": "[Compound 345, 3-[2-(4-chloro-3-fluorophenoxy)acetamido]-N-{[5-(difluoromethyl)pyridin-2-yl]methyl}bicyclo[1.1.1]pentane-1-carboxamide]", "EC50": "250 to 500"}, {"smiles": "O=C(COc1ccc(Cl)c(F)c1)NC12CC(C(=O)Nc3ccc(OC(F)F)nc3)(C1)C2", "note": "[Compound 282, 3-[2-(4-chloro-3-fluorophenoxy)acetamido]-N-[6-(difluoromethoxy)pyridin-3-yl]bicyclo[1.1.1]pentane-1-carboxamide]", "EC50": "< 250"}, {"smiles": "O=C(COc1ccc(Cl)c(Cl)c1)NC12CCC(C(=O)NCc3ccc(C(F)(F)F)cc3)(CC1)[C@H](O)C2", "note": "(single isomer, unassigned) [Compound 263]", "EC50": "< 250"}, {"smiles": "O=C(COc1ccc(F)c(F)c1)NC12CC(C(=O)Nc3ccc(OC(F)(F)F)cn3)(C1)C2", "note": "[Compound 308, 3-[2-(3,4-difluorophenoxy)acetamido]-N-[5-(trifluoromethoxy)pyridin-2-yl]bicyclo[1.1.1]pentane-1-carboxamide]", "EC50": "< 250"}, {"smiles": "O=C(COc1ccc(Cl)c(Cl)c1)NC12CCC(C(=O)NCc3ccc(C(F)(F)F)cc3)(CC1)C(O)C2", "note": "(stereo not drawn) [Compound 255, 4-[2-(3,4-dichlorophenoxy)acetamido]-2-hydroxy-N-{[4-(trifluoromethyl)phenyl]methyl}bicyclo[2.2.2]octane-1-carboxamide]", "EC50": "< 250"}, {"smiles": "O=C(COc1ccc(Cl)c(F)c1)NC12CCC(C(=O)NCC(=O)c3ccc(Cl)cc3)(CC1)[C@@H](O)C2", "note": "[Compound 273, (2S)-4-[2-(4-chloro-3-fluorophenoxy)acetamido]-N-[2-(4-chlorophenyl)-2-oxoethyl]-2-hydroxybicyclo[2.2.2]octane-1-carboxamide]", "EC50": "< 250"}, {"smiles": "O=C(CNC(=O)C12CCC(NC(=O)COc3ccc(Cl)c(F)c3)(CC1)C[C@@H]2O)Cc1ccccc1", "note": "[Compound 277, (2S)-4-[2-(4-chloro-3-fluorophenoxy)acetamido]-2-hydroxy-N-(2-oxo-3-phenylpropyl)bicyclo[2.2.2]octane-1-carboxamide]", "EC50": "< 250"}, {"smiles": "O=C(COc1ccc(Cl)c(F)c1)NC12CCC(C(=O)NCC(=O)c3ccc(Cl)c(F)c3)(CC1)[C@H](O)C2", "note": "[Compound 347, (2R)-4-[2-(4-chloro-3-fluorophenoxy)acetamido]-N-[2-(4-chloro-3-fluorophenyl)-2-oxoethyl]-2-hydroxybicyclo[2.2.2]octane-1-carboxamide]", "EC50": "< 250"}, {"smiles": "CCOC(=O)c1csc(NC(=O)C23CC(NC(=O)COc4ccc(Cl)c(F)c4)(C2)C3)n1", "note": "[Compound 312, ethyl 2-({3-[2-(4-chloro-3-fluorophenoxy)acetamido]bicyclo[1.1.1]pentane-1-carbonyl}amino)-1,3-thiazole-4-carboxylate]", "EC50": "250 to 500"}]}]}
